In US10947188B2, “Small molecule ferroptosis inducers” (THE TRUSTEES OF COLUMBIA UNIVERSITY IN THE CITY OF NEW YORK, priority 2016, dated 2021):

Tested on: BJeLR
Assay: Modulatory profiling: Alamar Blue viability, lethal compound cotreated with death modulator (EC50, AUC); as to AUC, modulator BJ.3MA: reference of the scale not given here; as to AUC, modulator BJ.ALLN: reference of the scale not given here; as to AUC, modulator BJ.Boc D: reference of the scale not given here; as to AUC, modulator BJ.CHX: reference of the scale not given here; as to AUC, modulator BJ.Co2+: reference of the scale not given here; as to AUC, modulator BJ.DPQ: reference of the scale not given here; as to AUC, modulator BJ.Gd3+: reference of the scale not given here; as to AUC, modulator BJ.LNAME: reference of the scale not given here; as to AUC, modulator BJ.NAD+: reference of the scale not given here; as to AUC, modulator BJ.NMMA: reference of the scale not given here; as to AUC, modulator BJ.Nec-1: reference of the scale not given here; as to AUC, modulator BJ.Pepstatin: reference of the scale not given here; as to AUC, modulator BJ.TLCK: reference of the scale not given here
Type: cell-based, human
Parameters: AUC, modulator BJ.Gd3+ / AUC, modulator BJ.LNAME / AUC, modulator BJ.Lmin / AUC, modulator BJ.3MA / AUC, modulator BJ.ALLN / AUC, modulator BJ.Boc D / AUC, modulator BJ.CHX / AUC, modulator BJ.Co2+ / AUC, modulator BJ.Nec-1 / AUC, modulator BJ.Pepstatin / AUC, modulator BJ.TLCK / AUC, modulator BJ.atoc / AUC, modulator BJ.trolox / AUC, modulator BJ.zVAD: unit not given beside the values
Conditions: BJeLR cells, modulatory profile value (AUC); for AUC, modulator BJ.3MA: lethal compound cotreated with modulator 3MA; for AUC, modulator BJ.ALLN: lethal compound cotreated with modulator ALLN; for AUC, modulator BJ.Boc D: lethal compound cotreated with modulator Boc D; for AUC, modulator BJ.CHX: lethal compound cotreated with modulator CHX; for AUC, modulator BJ.Co2+: lethal compound cotreated with modulator Co2+; for AUC, modulator BJ.DPQ: lethal compound cotreated with modulator DPQ; for AUC, modulator BJ.Gd3+: lethal compound cotreated with modulator Gd3+; for AUC, modulator BJ.LNAME: lethal compound cotreated with modulator LNAME; for AUC, modulator BJ.Lmin/NAD+: lethal compound cotreated with modulator Lmin/NAD+; for AUC, modulator BJ.Lmin: lethal compound cotreated with modulator Lmin; for AUC, modulator BJ.NAD+: lethal compound cotreated with modulator NAD+; for AUC, modulator BJ.NMMA: lethal compound cotreated with modulator NMMA; for AUC, modulator BJ.Nec-1: lethal compound cotreated with modulator Nec-1; for AUC, modulator BJ.Pepstatin: lethal compound cotreated with modulator Pepstatin; for AUC, modulator BJ.TLCK: lethal compound cotreated with modulator TLCK; for AUC, modulator BJ.atoc: lethal compound cotreated with modulator atoc; for AUC, modulator BJ.trolox: lethal compound cotreated with modulator trolox; for AUC, modulator BJ.zVAD: lethal compound cotreated with modulator zVAD

Row | SMILES | AUC, modulator BJ.3MA | AUC, modulator BJ.ALLN | AUC, modulator BJ.Boc D | AUC, modulator BJ.CHX | AUC, modulator BJ.Co2+ | AUC, modulator BJ.DPQ | AUC, modulator BJ.Gd3+ | AUC, modulator BJ.LNAME | AUC, modulator BJ.Lmin/NAD+ | AUC, modulator BJ.Lmin | AUC, modulator BJ.NAD+ | AUC, modulator BJ.NMMA | AUC, modulator BJ.Nec-1 | AUC, modulator BJ.Pepstatin | AUC, modulator BJ.TLCK | AUC, modulator BJ.atoc | AUC, modulator BJ.trolox | AUC, modulator BJ.zVAD
1 | COc1ccc(-n2nnnc2S(=O)(=O)CC(=O)N2CCCCC2)cc1 [CIL48] | 0.09789 | −0.1008 | −0.02225 | 0.1619 | 0.05392 | 0.01112 | −0.004307 | −0.01039 | 0.06326 | −0.02664 | −0.04246 | 0.01412 | −0.04434 | −0.01271 | −0.01339 | 0.01164 | −0.03407 | −0.01807
2 | CCCCNc1c(Cl)cnn(-c2ccccc2)c1=O [CIL36] | 0.06295 | −0.03236 | −0.0473 | −0.03087 | −0.03647 | 0.1393 | 0.01469 | 0.0008728 | −0.09403 | 0.02336 | −0.01826 | 0.03927 | −0.1729 | −0.01891 | −0.04337 | 0.06822 | −0.02322 | 0.00966
3 | COc1cc([C@@H]2c3cc4c(cc3[C@@H](O[C@@H]3O[C@@H]5CO[C@@H](C)O[C@H]5[C@H](O)[C@H]3O)[C@H]3COC(=O)[C@H]23)OCO4)cc(OC)c1O [Etoposide] | −0.06196 | 0.06099 | 0.0612 | 0.1255 | 0.0951 | −0.0469 | 0.01317 | 0.004515 | 0.1011 | 0.04682 | 0.08359 | −0.03678 | −0.04354 | 0.01632 | 0.01399 | −0.01038 | −0.01808 | 0.06084
4 | COc1cc([C@@H]2c3cc4c(cc3[C@H](O)[C@H]3COC(=O)[C@H]23)OCO4)cc(OC)c1OC [Podophyllotoxin] | −0.01267 | −0.003673 | 0.003542 | 0.1228 | 0.09497 | −0.03896 | 0.01784 | 0.005868 | 0.1012 | 0.05457 | 0.09627 | −0.007043 | −0.04167 | 0.02214 | −0.02042 | 0.007072 | −0.01282 | 0.0496
5 | O=P(Oc1ccccc1)(Oc1ccccc1)O[C@@H]1C=CS(=O)(=O)C1 [CIL44] | 0.05756 | −0.0588 | −0.03963 | 0.1553 | 0.02387 | 0.05604 | 0.005556 | 0.008981 | −0.04975 | 0.03065 | −0.04167 | 0.02894 | −0.01119 | 0.002455 | −0.03963 | 0.009119 | −0.03989 | −0.01682
6 | COc1cccc(-n2nnnc2S(C)(=O)=O)c1 [CIL16] | 0.05064 | −0.03491 | −0.04692 | 0.01221 | 0.07207 | −0.01732 | −0.02506 | −0.01278 | −0.05229 | −0.02238 | −0.02177 | −0.01938 | 0.06903 | 0.02481 | −0.02516 | −0.03351 | 0.003689 | −0.006166
